Assay results from ChEMBL document CHEMBL1201862, “PubChem BioAssay data set” (2004).
One block for each compound: values may come before it. Calls of active or inactive are those of the source.

Columns and labels:
Cytochrome P450 2C19 = Cytochrome P450 2C19 (Homo sapiens, UniProt P33261); test: Cytochrome panel assay with activity outcomes. Panel member name: p450-cyp2c19 Compounds with AC50 equal or less than 10 uM are considered active; type: functional; conditions: read-out: AC50
Cytochrome P450 2C9 = Cytochrome P450 2C9 (Homo sapiens, UniProt P11712)
Chain of Cytochrome P450 2C9 (P11712 whole entry): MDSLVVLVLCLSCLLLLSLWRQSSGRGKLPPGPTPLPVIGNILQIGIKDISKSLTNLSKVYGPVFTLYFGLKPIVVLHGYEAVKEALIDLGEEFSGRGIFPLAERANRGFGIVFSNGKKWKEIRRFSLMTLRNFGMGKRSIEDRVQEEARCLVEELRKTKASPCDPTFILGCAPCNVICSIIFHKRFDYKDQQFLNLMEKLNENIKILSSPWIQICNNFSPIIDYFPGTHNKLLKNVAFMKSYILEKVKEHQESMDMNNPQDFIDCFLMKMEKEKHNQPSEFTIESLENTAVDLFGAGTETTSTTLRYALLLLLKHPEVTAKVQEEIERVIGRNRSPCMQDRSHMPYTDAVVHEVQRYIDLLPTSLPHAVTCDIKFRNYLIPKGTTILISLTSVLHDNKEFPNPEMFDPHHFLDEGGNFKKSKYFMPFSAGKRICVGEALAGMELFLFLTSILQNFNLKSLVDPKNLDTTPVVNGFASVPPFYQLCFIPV

[1] = inhibitors of intracellular T. cruzi replication, confirmation, NIH3T3 host cells, beta-gal luminescence (AID 2044); type: functional, cell-based;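 note: intracellular parasites grown in NIH/3T3 mouse fibroblasts as host cells; luminescent beta-galactosidase reporter signal from transgenic T. cruzi replicating inside host cells; inhibitors lower the luminescence signal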
[2] = cytotoxicity toward NIH3T3 fibroblasts, dose response, counter-screen, cell-based, ATP luminescence, mouse fibroblasts (AID 2010); type: functional;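 note: cells exposed to compound for about 90 hours before reading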
Cytochrome P450 2D6 = Cytochrome P450 2D6 (Homo sapiens, UniProt P10635);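 note: CYP2D6 member of a cytochrome P450 panel assay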
Chain of Cytochrome P450 2D6 (P10635 whole entry): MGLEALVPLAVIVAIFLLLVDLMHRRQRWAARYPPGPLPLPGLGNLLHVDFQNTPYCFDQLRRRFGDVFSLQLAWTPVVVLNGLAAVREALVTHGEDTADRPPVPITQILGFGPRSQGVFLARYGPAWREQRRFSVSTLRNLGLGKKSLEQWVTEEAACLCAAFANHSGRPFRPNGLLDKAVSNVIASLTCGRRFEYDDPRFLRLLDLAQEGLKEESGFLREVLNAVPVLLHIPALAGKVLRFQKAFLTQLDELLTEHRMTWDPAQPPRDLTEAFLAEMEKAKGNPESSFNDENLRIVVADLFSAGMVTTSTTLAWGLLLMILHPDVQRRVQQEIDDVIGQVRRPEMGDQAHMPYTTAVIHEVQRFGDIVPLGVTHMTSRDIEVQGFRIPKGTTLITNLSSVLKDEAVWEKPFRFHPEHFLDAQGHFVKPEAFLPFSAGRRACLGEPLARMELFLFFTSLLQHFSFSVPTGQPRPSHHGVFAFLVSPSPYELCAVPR

Cytochrome P450 3A4 = Cytochrome P450 3A4 (Homo sapiens, UniProt P08684);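 note: CYP3A4 tested as one member of a cytochrome P450 panel screen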
Chain of Cytochrome P450 3A4 (P08684 whole entry): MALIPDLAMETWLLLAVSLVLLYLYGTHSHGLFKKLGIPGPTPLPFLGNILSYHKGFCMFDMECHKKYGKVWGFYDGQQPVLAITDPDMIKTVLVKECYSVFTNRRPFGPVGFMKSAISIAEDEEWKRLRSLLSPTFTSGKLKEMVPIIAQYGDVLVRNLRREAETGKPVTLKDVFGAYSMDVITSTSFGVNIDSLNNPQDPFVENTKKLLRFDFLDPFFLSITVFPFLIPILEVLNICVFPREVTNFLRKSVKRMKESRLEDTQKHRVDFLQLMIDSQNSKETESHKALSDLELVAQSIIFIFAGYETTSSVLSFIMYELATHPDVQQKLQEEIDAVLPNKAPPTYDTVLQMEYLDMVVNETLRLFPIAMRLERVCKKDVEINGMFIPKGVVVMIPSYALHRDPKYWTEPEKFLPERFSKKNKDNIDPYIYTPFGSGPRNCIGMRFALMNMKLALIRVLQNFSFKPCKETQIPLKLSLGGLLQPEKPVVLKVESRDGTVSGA

[3] = biological target: T1, Heat shock factor protein 1 (Mus musculus, UniProt P38532); test: inhibition of MG132-induced HSE-luciferase signal, confirmation, cell-based, NIH3T3, luminescence, dose retest (AID 2382); type: functional;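 note: NIH3T3 fibroblasts with HSF1-driven luciferase reporter stressed by proteasome inhibitor MG132; luminescence from HSF1-driven luciferase expression after 8 hours of MG132 stress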
T1 sequence (P38532 whole entry): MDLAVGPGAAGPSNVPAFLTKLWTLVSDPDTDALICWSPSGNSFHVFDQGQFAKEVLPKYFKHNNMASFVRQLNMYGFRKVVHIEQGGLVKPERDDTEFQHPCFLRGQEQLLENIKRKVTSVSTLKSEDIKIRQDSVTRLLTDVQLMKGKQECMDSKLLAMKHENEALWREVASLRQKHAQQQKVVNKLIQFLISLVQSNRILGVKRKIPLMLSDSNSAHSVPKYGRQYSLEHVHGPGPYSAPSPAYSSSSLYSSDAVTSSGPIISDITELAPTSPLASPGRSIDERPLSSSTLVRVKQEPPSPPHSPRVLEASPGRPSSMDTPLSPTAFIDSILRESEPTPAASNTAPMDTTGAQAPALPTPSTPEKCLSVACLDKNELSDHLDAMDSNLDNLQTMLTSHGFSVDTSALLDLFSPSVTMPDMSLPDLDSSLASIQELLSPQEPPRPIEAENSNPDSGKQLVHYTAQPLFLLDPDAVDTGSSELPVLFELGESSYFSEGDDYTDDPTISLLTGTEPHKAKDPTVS

Chain of Cytochrome P450 2C19 (P33261 whole entry): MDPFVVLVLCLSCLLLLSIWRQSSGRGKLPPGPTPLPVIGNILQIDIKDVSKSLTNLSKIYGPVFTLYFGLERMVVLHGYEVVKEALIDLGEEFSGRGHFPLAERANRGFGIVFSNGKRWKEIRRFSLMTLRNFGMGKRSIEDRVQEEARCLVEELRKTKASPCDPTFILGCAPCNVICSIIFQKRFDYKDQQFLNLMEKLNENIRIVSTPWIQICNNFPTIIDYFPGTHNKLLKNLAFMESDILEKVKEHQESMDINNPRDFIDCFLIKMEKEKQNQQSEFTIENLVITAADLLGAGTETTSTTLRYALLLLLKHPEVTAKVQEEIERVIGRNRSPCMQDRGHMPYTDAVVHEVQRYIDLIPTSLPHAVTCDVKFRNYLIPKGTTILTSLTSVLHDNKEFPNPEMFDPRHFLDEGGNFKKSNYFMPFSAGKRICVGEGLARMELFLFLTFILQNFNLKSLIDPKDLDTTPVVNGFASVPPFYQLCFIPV

AC50 (Cytochrome P450 2C19): 31.6 µM (inconclusive)
Compound: CCOC(=O)c1cncc(C(=O)O)c1

AC50 (Cytochrome P450 2C9): 0.158 µM (inconclusive)
Compound: COc1cccc(-c2csc(N3CCN(C(=S)Nc4ccccc4)CC3)n2)c1

Compound: CN(C)c1ncc(CN2CCC(CO)(CCCc3ccccc3)CC2)s1
EC50 [1]: 0.996 µM (active) | EC50 [2]: > 60 µM (not active)

AC50 (Cytochrome P450 2C19): 2.82 µM (inconclusive) | AC50 (Cytochrome P450 2C9): 2.51 µM (inconclusive)
Compound: CCOc1ccc(OCC)c(NC(=O)C2CCCN(S(=O)(=O)c3cccs3)C2)c1 (stereo unspecified)

Compound: CN1CCN(NC(=O)c2cc([N+](=O)[O-])cc([N+](=O)[O-])c2)CC1
EC50 [1]: 2.33 µM (active) | EC50 [2]: > 30 µM (not active)

AC50 (Cytochrome P450 2D6): 7.94 µM (inconclusive)
Compound: CN1CCN(C(c2ccccc2)c2ccccc2)CC1 [CYCLIZINE]

AC50 (Cytochrome P450 2D6): 12.6 µM (inconclusive) | AC50 (Cytochrome P450 3A4): 22.4 µM (inconclusive)
Compound: Cc1ccc([N+](=O)[O-])cc1NC(=S)NC(=O)CC(C)(C)C

Compound: CCN1CCCc2cc(CN(CCN3CCOCC3)C(S)=Nc3ccccc3OC)ccc21
EC50 [1]: 1.53 µM (active) | EC50 [2]: > 60 µM (not active)

EC50 [3]: > 195 µM (not active)
Compound: COCCN(C(=O)COC(=O)/C=C/c1ccc(C(F)(F)F)cc1)c1c(N)n(Cc2ccccc2)c(=O)[nH]c1=O

AC50 (Cytochrome P450 3A4): 15.8 µM (inconclusive)
Compound: CC(C)NC(=O)N1CC[C@@]2(CCCN(C(=O)c3csnn3)C2)C1

AC50 (Cytochrome P450 2D6): 39.8 µM (inconclusive) | AC50 (Cytochrome P450 2C9): 1.26 µM (inconclusive)
Compound: CN(C)c1ncnc2ccc(-c3cccnc3)cc12

AC50 (Cytochrome P450 3A4): 25.1 µM (inconclusive)
Compound: Cn1c(SC2CCCCC2=O)nnc1-c1ccncc1 (stereo unspecified)

AC50 (Cytochrome P450 2C9): 0.158 µM (inconclusive)
Compound: O=C(NCCc1ccccn1)c1cc(C(=O)C2CCCCC2)c[nH]1

Compound: CCCn1c(NC(=O)c2ccc(F)cc2)nc2ccccc21
EC50 [1]: 3 µM (active) | EC50 [2]: > 60 µM (not active)

AC50 (Cytochrome P450 2D6): 22.4 µM (inconclusive) | AC50 (Cytochrome P450 3A4): 20 µM (inconclusive)
Compound: CC1(c2ccccc2)NC(=O)N(CC(=O)NCCC2=CCCCC2)C1=O (stereo unspecified)

Compound: Clc1ccc(OCCn2ccnc2)cc1Cl
EC50 [1]: 2.49 µM (active) | EC50 [2]: > 60 µM (not active)

AC50 (Cytochrome P450 3A4): 31.6 µM (inconclusive) | AC50 (Cytochrome P450 2C9): 25.1 µM (inconclusive)
Compound: COn1c(-c2ccccc2)nc2c1CCc1nonc1-2

Compound: O=C(C1=C[C@H](c2csc3ccccc23)C[C@H](OCc2ccc(CO)cc2)O1)N1CCN(Cc2ccc3c(c2)OCO3)CC1
EC50 [1]: 0.137 µM (active) | EC50 [2]: > 60 µM (not active)

EC50 [3]: > 195 µM (not active)
Compound: COc1ccccc1CN(C)C(=O)C1COc2ccccc2O1 (stereo unspecified)

Compound: O=C(NCC1CCCN(Cc2ccccc2F)C1)c1cccc(C(F)(F)F)c1 (stereo unspecified)
EC50 [1]: 0.975 µM (active) | EC50 [2]: > 60 µM (not active)

AC50 (Cytochrome P450 2C9): 39.8 µM (inconclusive)
Compound: CCOC(=O)c1ccc(S(=O)(=O)N2CCN(C)CC2)cc1

AC50 (Cytochrome P450 2C19): 15.8 µM (inconclusive) | AC50 (Cytochrome P450 3A4): 3.16 µM (inconclusive) | AC50 (Cytochrome P450 2C9): 12.6 µM (inconclusive)
Compound: Cc1ccc(C(=O)N/N=C/c2nc3ccccc3n2C)cc1

Compound: COc1ccccc1CN1CCCC(N2CCN(c3ccc(F)cc3)CC2)C1 (stereo unspecified)
EC50 [1]: 0.253 µM (active) | EC50 [2]: 10.1 µM (active)

Compound: Cc1c(C)n(CCCN(C)C)c2ncnc(NC3CCCCC3)c12
EC50 [1]: 0.603 µM (active) | EC50 [2]: > 60 µM (not active)

AC50 (Cytochrome P450 2C19): 0.0501 µM (inconclusive)
Compound: O[C@@H](COc1cccc2ccccc12)CN1CCOCC1

AC50 (Cytochrome P450 2C9): 22.4 µM (inconclusive)
Compound: COc1ccc(CCNC(=O)C2CCN(S(=O)(=O)N3CC(C)CC(C)C3)CC2)cc1OC (stereo unspecified)

AC50 (Cytochrome P450 2D6): 7.08 µM (inconclusive)
Compound: CCCCCCCCC(=O)N/N=C/c1cccc(Br)c1

EC50 [3]: > 195 µM (not active)
Compound: Cc1ccc(C(=O)Nc2ccccc2C(=O)O)cc1S(=O)(=O)NCc1ccccc1

EC50 [3]: > 195 µM (not active)
Compound: COc1ccccc1NC(=O)C1CCN(C(=O)C2CC(=O)N(c3ccc(C)cc3)C2)CC1 (stereo unspecified)

EC50 [3]: > 195 µM (not active)
Compound: COc1ccc(NC(=O)Cn2c(=O)n(Cc3ccco3)c(=O)c3ccccc32)cc1

AC50 (Cytochrome P450 3A4): 28.2 µM (inconclusive)
Compound: Cc1ccc(C(=N)NOC(=O)Cc2cccs2)cc1

EC50 [3]: > 195 µM (not active)
Compound: O=C(COC(=O)c1cnccn1)Nc1ccc(Cl)cn1

EC50 [3]: 0.288 µM (active)
Compound: O=C(Nc1cccnc1)c1noc2c1CCCCC2

Compound: CC(=O)OCC1=C(C(=O)O)N2C(=O)[C@@H](NC(=O)CCC[C@@H](N)C(=O)O)[C@@H]2SC1
AC50 (Cytochrome P450 2C9): 39.8 µM (inconclusive)

EC50 [3]: > 195 µM (not active)
Compound: O=S(=O)(NCc1ccc(C(F)(F)F)cc1)c1ccc(-n2cnnn2)cc1
